In the oligonucleotide strings, read from the 5' end, every base follows the letter of its sugar. An asterisk marks phosphorothioate; unmarked linkages are phosphodiester. Other units and linkages are bracketed, terminal groups are in braces. A string of capitals states the bases alone. e = 2'-O-(2-methoxyethyl) (MOE); [5mC] = 5-methylcytosine
Columns and labels:
[1] = system: HuVECs; experiment: Endothelial tube formation assay in HuVECs; details: 75 nM oligomeric compound
Description: In some embodiments, HUVECs are used to measure the effects of oligomeric compounds of the invention on endothelial tube formation activity. The tube formation assay is performed using an in vitro Angiogenesis Assay Kit (Chemicon International, Temecula, Calif.).
Untreated control cells receive LIPOFECTIN™ only.
Approximately fifty hours after transfection, cells are transferred to 96-well plates coated with ECMatrix™ (Chemicon International). Under these conditions, untreated HUVECs form tube-like structures. After an overnight incubation at 37° C., treated and untreated cells are inspected by light microscopy. Tube formation in cells treated with oligomeric compounds is compared to that in untreated control cells. Individual wells are assigned discrete scores from 1 to 5 depending on the extent of tube formation. A score of 1 refers to a well with no tube formation while a score of 5 is given to wells where all cells are forming an extensive tubular network.
In one embodiment, primary human umbilical vein endothelial cells (HuVECs) were used to measure the effects of oligomeric compounds targeted to miRNAs on tube formation activity. HuVECs were routinely cultured in EBM (Clonetics Corporation, Walkersville, Md.) supplemented with SingleQuots supplements (Clonetics Corporation, Walkersville, Md.). […] HuVECs are plated at 3000 cells/well in 96-well plates. One day later, cells are transfected with oligomeric compounds. The tube formation assay is performed using an in vitro Angiogenesis Assay Kit (Chemicon International, Temecula, Calif.).
ISIS 29248 and ISIS 196103 are chimeric 5-10-52′-MOE gapmer oligonucleotides. […] All cytidine residues are 5-methylcytidines. ISIS 342672 (SEQ ID NO: 789) contains 13 mismatches with respect to the mature mir-143 miRNA, and was also used as a negative control. ISIS 342672 is a uniform 2′-MOE phosphorothioate oligomeric compound 22 nucleotides in length. All cytidine residues are 5-methylcytidines.
Oligomeric compound was mixed with LIPOFECTIN™ (Invitrogen Life Technologies, Carlsbad, Calif.) in OPTI-MEM™ (Invitrogen Life Technologies, Carlsbad, Calif.) to achieve a final concentration of 75 nM of oligomeric compound and 2.25 μg/mL LIPOFECTIN™. Before adding to cells, the oligomeric compound, LIPOFECTIN™ and OPTI-MEM™ were mixed thoroughly and incubated for 0.5 hrs. Untreated control cells received LIPOFECTIN™ only. […] Compounds targeted to miRNAs were tested in triplicate, and ISIS 29848 was tested in up to six replicates. […] 100 μL of full growth medium was added to each well. Fifty hours after transfection, cells are transferred to 96-well plates coated with ECMa-trix™ (Chemicon Inter-national). Under these conditions, untreated HuVECs form tube-like structures.

[2] = system: Glut4; experiment: Glut4 mRNA expression in adipocytes (real-time PCR); format: cell-based, human; details: for GLUT4 mRNA: differentiating adipocytes transfected with oligomeric compound; for Glut4 (mRNA expression): adipocytes, 250 nM oligomeric compound, day nine post-transfection, relative to control (1.0)
[3] = system: aP2; experiment: aP2 mRNA expression in adipocytes (real-time PCR); format: cell-based, human; details: for AP2 mRNA / aP2 mRNA: differentiating adipocytes transfected with oligomeric compound; for aP2 mRNA: Table 75; for AP2 (mRNA expression): adipocytes, 250 nM oligomeric compound, day nine post-transfection, relative to control (1.0)
[4] = system: PPARγ; experiment: PPARγ mRNA expression in adipocytes (real-time PCR); format: cell-based, human; details: for PPAR gamma mRNA: differentiating adipocytes transfected with oligomeric compound; for PPAR gamma (mRNA expression): adipocytes, 250 nM oligomeric compound, day nine post-transfection, relative to control (1.0)
[5] = system: HSL; experiment: HSL mRNA expression in adipocytes (real-time PCR); format: cell-based, human; details: for HSL mRNA: differentiating adipocytes transfected with oligomeric compound; for HSL (mRNA expression): adipocytes, 250 nM oligomeric compound, day nine post-transfection, relative to control (1.0)
[6] = system: adipocytes; experiment: Triglyceride accumulation assay in adipocytes; format: cell-based, human
[7] = differentiating adipocytes transfected with oligomeric compound
[8] = differentiating adipocytes transfected with oligomeric compound, Table 75
[9] = adipocytes, 250 nM oligomeric compound, relative to control (1.0), Table 16
[10] = adipocytes, 250 nM oligomeric compound, relative to control (1.0), Table 15

Row | Substance | % Activity Relative to UTC (tube formation) ([1]; Table 57) [%] | GLUT4 mRNA ([2]; Table 75) | aP2 mRNA [3] | PPAR gamma mRNA ([4]; Table 75) | HSL mRNA ([5]; Table 75) | TG (triglyceride accumulation) [6, 8] | % Activity Relative to UTC (tube formation) ([1]; Table 56) [%] | also measured
1 | 327951 (antisense e[5mC]*eA*e[5mC]*eA*eA*eA*e[5mC]*e[5mC]*eA*eT*eT*eA*eT*eG*eT*eG*e[5mC]*eT*eG*e[5mC]*eT*eA) [compound 327951] | – | – | – | – | – | – | – | % Activity Relative to UTC (tube formation) ([1]; Table 59): 73.3%; GLUT4 mRNA [2]: 81 percentage of untreated control (UTC); AP2 mRNA [3]: 91 percentage of untreated control (UTC); PPAR gamma mRNA [4]: 84 percentage of untreated control (UTC); HSL mRNA [5]: 100 percentage of untreated control (UTC); TG (triglyceride accumulation) [6, 7]: 76 percentage of untreated control (UTC)
2 | 327911 (antisense eG*e[5mC]*eT*eA*e[5mC]*e[5mC]*eT*eG*e[5mC]*eA*e[5mC]*eT*eG*eT*eA*eA*eG*e[5mC]*eA*e[5mC]*eT*eT*eT*eT) [compound 327911] | 75.9 | 48 percentage of untreated control (UTC) | 76 percentage of untreated control (UTC) | 75 percentage of untreated control (UTC) | 71 percentage of untreated control (UTC) | 59 percentage of untreated control (UTC) | – | –
3 | 327893 (antisense eA*eA*e[5mC]*e[5mC]*eA*e[5mC]*eA*e[5mC]*eA*eA*e[5mC]*e[5mC]*eT*eA*e[5mC]*eT*eA*e[5mC]*e[5mC]*eT*e[5mC]*eA) [compound 327893] | – | – | – | – | – | – | 100.0 | Glut4 (mRNA expression) ([2]; Table 16): 1.47; AP2 (mRNA expression) ([3]; Table 16): 0.97; PPAR gamma (mRNA expression) ([4]; Table 16): 1.03; HSL (mRNA expression) ([5]; Table 16): 0.85; TG (triglyceride accumulation) [6, 9]: 0.95
4 | 327902 (antisense eG*eG*e[5mC]*eT*eG*eT*e[5mC]*eA*eA*eT*eT*e[5mC]*eA*eT*eA*eG*eG*eT*e[5mC]*eA*eG) [compound 327902] | 41.4 | 15 percentage of untreated control (UTC) | 58 percentage of untreated control (UTC) | 56 percentage of untreated control (UTC) | 56 percentage of untreated control (UTC) | 55 percentage of untreated control (UTC) | – | –
5 | 327877 (antisense e[5mC]*eG*e[5mC]*e[5mC]*eA*eA*eT*eA*eT*eT*eT*eA*e[5mC]*eG*eT*eG*e[5mC]*eT*eG*e[5mC]*eT*eA) [compound 327877] | – | – | – | – | – | – | 78.6 | GLUT4 mRNA [2]: 119 percentage of untreated control (UTC); AP2 mRNA [3]: 77 percentage of untreated control (UTC); PPAR gamma mRNA [4]: 85 percentage of untreated control (UTC); HSL mRNA [5]: 82 percentage of untreated control (UTC); TG (triglyceride accumulation) [6, 7]: 109 percentage of untreated control (UTC)
6 | 327897 (antisense eA*e[5mC]*eA*eG*eG*e[5mC]*e[5mC]*eG*eG*eG*eA*e[5mC]*eA*eA*eG*eT*eG*e[5mC]*eA*eA*eT*eA) [compound 327897] | – | 32 percentage of untreated control (UTC) | 62 percentage of untreated control (UTC) | 66 percentage of untreated control (UTC) | 39 percentage of untreated control (UTC) | 28 percentage of untreated control (UTC) | – | % Activity Relative to UTC (tube formation) ([1]; Table 59): 40.0%
7 | 327886 (antisense e[5mC]*eG*e[5mC]*eG*eT*eA*e[5mC]*e[5mC]*eA*eA*eA*eA*eG*eT*eA*eA*eT*eA*eA*eT*eG) [compound 327886] | – | 13 percentage of untreated control (UTC) | 19 percentage of untreated control (UTC) | 25 percentage of untreated control (UTC) | 22 percentage of untreated control (UTC) | 12 percentage of untreated control (UTC) | 42.9 | –
8 | 327900 (antisense e[5mC]*eT*eG*e[5mC]*e[5mC]*eT*eG*eT*e[5mC]*eT*eG*eT*eG*e[5mC]*e[5mC]*eT*eG*e[5mC]*eT*eG*eT) [compound 327900] | 55.2 | 12 percentage of untreated control (UTC) | 32 percentage of untreated control (UTC) | 55 percentage of untreated control (UTC) | 21 percentage of untreated control (UTC) | 26 percentage of untreated control (UTC) | – | –
9 | 327895 (antisense eA*e[5mC]*eA*eA*eA*e[5mC]*eA*e[5mC]*e[5mC]*eA*eT*eT*eG*eT*e[5mC]*eA*e[5mC]*eA*e[5mC]*eT*e[5mC]*e[5mC]*eA) [compound 327895] | – | 76 percentage of untreated control (UTC) | 90 percentage of untreated control (UTC) | 86 percentage of untreated control (UTC) | 88 percentage of untreated control (UTC) | 76 percentage of untreated control (UTC) | 100.0 | –
10 | 327920 (antisense eG*eA*eG*eA*e[5mC]*e[5mC]*e[5mC]*eA*eG*eT*eA*eG*e[5mC]*e[5mC]*eA*eG*eA*eT*eG*eT*eA*eG*e[5mC]*eT) [compound 327920] | 41.4 | 0 percentage of untreated control (UTC) | 22 percentage of untreated control (UTC) | 34 percentage of untreated control (UTC) | 14 percentage of untreated control (UTC) | 20 percentage of untreated control (UTC) | – | –
11 | 327890 (antisense eA*eG*e[5mC]*eA*e[5mC]*eA*eA*eA*e[5mC]*eT*eA*e[5mC]*eT*eA*e[5mC]*e[5mC]*eT*e[5mC]*eA) [compound 327890] | – | – | – | – | – | – | 92.9 | Glut4 (mRNA expression) ([2]; Table 15): 1.10; Glut4 (mRNA expression) ([2]; Table 16): 0.67; AP2 (mRNA expression) ([3]; Table 15): 0.91; AP2 (mRNA expression) ([3]; Table 16): 0.69; PPAR gamma (mRNA expression) ([4]; Table 15): 1.18; PPAR gamma (mRNA expression) ([4]; Table 16): 0.94; HSL (mRNA expression) ([5]; Table 15): 0.86; HSL (mRNA expression) ([5]; Table 16): 0.67; TG (triglyceride accumulation) [6, 10]: 0.92; TG (triglyceride accumulation) [6, 9]: 0.61
12 | 327954 (antisense eA*e[5mC]*eA*eA*eA*eG*eT*eT*e[5mC]*eT*eG*eT*eG*eA*eT*eG*e[5mC]*eA*e[5mC]*eT*eG*eA) [compound 327954] | – | – | – | – | – | – | – | % Activity Relative to UTC (tube formation) ([1]; Table 59): 53.3%; Glut4 (mRNA expression) ([2]; Table 15): 0.92; AP2 (mRNA expression) ([3]; Table 15): 0.95; PPAR gamma (mRNA expression) ([4]; Table 15): 0.73; HSL (mRNA expression) ([5]; Table 15): 1.03; TG (triglyceride accumulation) [6, 10]: 0.58
13 | 327925 (antisense eT*eA*eG*e[5mC]*eT*eG*eG*eT*eT*eG*eA*eA*eG*eG*eG*eG*eA*e[5mC]*e[5mC]*eA*eA) [compound 327925] | – | – | – | – | – | – | – | % Activity Relative to UTC (tube formation) ([1]; Table 58): 44.4%; Glut4 (mRNA expression) ([2]; Table 15): 1.99; Glut4 (mRNA expression) ([2]; Table 16): 0.61; AP2 (mRNA expression) ([3]; Table 15): 0.77; AP2 (mRNA expression) ([3]; Table 16): 0.77; PPAR gamma (mRNA expression) ([4]; Table 15): 0.60; PPAR gamma (mRNA expression) ([4]; Table 16): 0.83; HSL (mRNA expression) ([5]; Table 15): 0.78; HSL (mRNA expression) ([5]; Table 16): 0.75; TG (triglyceride accumulation) [6, 10]: 0.72; TG (triglyceride accumulation) [6, 9]: 0.63
14 | 327917 (antisense eT*e[5mC]*eA*eA*e[5mC]*eA*eT*e[5mC]*eA*eG*eT*e[5mC]*eT*eG*eA*eT*eA*eA*eG*e[5mC]*eT*eA) [compound 327917] | 82.8 | 15 percentage of untreated control (UTC) | 32 percentage of untreated control (UTC) | 54 percentage of untreated control (UTC) | 26 percentage of untreated control (UTC) | 26 percentage of untreated control (UTC) | – | –
15 | 327885 (antisense eA*e[5mC]*eT*eA*e[5mC]*e[5mC]*eT*eG*e[5mC]*eA*e[5mC]*eT*eG*eT*eA*eA*eG*e[5mC]*eA*e[5mC]*eT*eT*eT*eG) [compound 327885] | – | 40 percentage of untreated control (UTC) | 69 percentage of untreated control (UTC) | 59 percentage of untreated control (UTC) | 57 percentage of untreated control (UTC) | 29 percentage of untreated control (UTC) | 50.0 | –
16 | 327892 (antisense eA*e[5mC]*eT*eT*eT*e[5mC]*eG*eG*eT*eT*eA*eT*e[5mC]*eT*eA*eG*e[5mC]*eT*eT*eT*eA) [compound 327892] | – | – | – | – | – | – | 57.1 | Glut4 (mRNA expression) ([2]; Table 15): 0.07; AP2 (mRNA expression) ([3]; Table 15): 0.31; PPAR gamma (mRNA expression) ([4]; Table 15): 0.32; HSL (mRNA expression) ([5]; Table 15): 0.25; TG (triglyceride accumulation) [6, 10]: 0.42
17 | 327928 (antisense eA*eA*e[5mC]*e[5mC]*eG*eA*eT*eT*eT*e[5mC]*eA*eG*eA*eT*eG*eG*eT*eG*e[5mC]*eT*eA*eG) [compound 327928] | – | – | – | – | – | – | – | % Activity Relative to UTC (tube formation) ([1]; Table 58): 37.0%; GLUT4 mRNA [2]: 39 percentage of untreated control (UTC); AP2 mRNA [3]: 77 percentage of untreated control (UTC); PPAR gamma mRNA [4]: 57 percentage of untreated control (UTC); HSL mRNA [5]: 52 percentage of untreated control (UTC); TG (triglyceride accumulation) [6, 7]: 45 percentage of untreated control (UTC)
18 | 327921 (antisense e[5mC]*eT*eT*e[5mC]*e[5mC]*eA*eG*eT*e[5mC]*eG*eG*eG*eG*eA*eT*eG*eT*eT*eT*eA*e[5mC]*eA) [compound 327921] | 96.6 | 36 percentage of untreated control (UTC) | 76 percentage of untreated control (UTC) | 75 percentage of untreated control (UTC) | 76 percentage of untreated control (UTC) | 56 percentage of untreated control (UTC) | – | –

Reference: patent publication US8178506B2, “Oligomeric compounds and compositions for use in modulation of small non-coding RNAs” (Regulus Therapeutics Inc., priority 2003, dated 2012)
